Source: EP0007294A2, “Membrane stabilizing compounds having beta-receptor blocking activity, their preparation, method for treatment of arrhythmic conditions, and pharmaceutical preparations containing same” (priority 1978, dated 1980)
Read-outs that look alike come from different tables or passages of the source.

Columns and labels:
[1] = test system: ectopics; test: Conscious dogs with ligation of a coronary artery according to Harris: ectopics and convulsions; type: in vivo; settings: for ED50 / ED90: Canis lupus familiaris; for ED50: read-out: Conscious dog Harris ligation Ectopics -50%; for ED90: read-out: Conscious dog Harris ligation Ectopics -90%
Description: (§1) Male beagle dogs, 7-13 kg, undergo two days prior to the test a surgical ligation of a coronary artery. On the day of the test the conscious dog is secured in a canvas sling in a standing position and given increasing doses of the test compounds by intravenous administration. ECG, blood pressure etc are monitored and attention is paid to all CNS-effects. The dogs have almost 100 percent of ectopics prior to administration of the compound to be tested. Effects of the test drug on the frequency of ectopics are calculated from ECG. The accumulative end doses giving 50% and 90% reduction of ectopics as well as the ED50 values which give convulsions (side-effect) are measured and given below in Table 3. The value for convulsions is a mean value for 3-5 dogs.
(§2) x) The value given is the final value in a series of doses 0.5 + 1 + 2 + 4 + 8 mg/kg i.v. giving 50% reduction of ectopics. 30 min interval between doses.
(§3) Table 3: Antiarrythmic effect and CNS-effects of four β-receptor blockers, a membrane stabilizer, and ten new compounds with combined β-blocking and membrane stabilizing effect.

[2] = test system: chloroform induced ventricular tachy-cardia; test: Alternative chloroform test on mice: ventricular tachycardia inhibition and ataxia; type: in vivo; settings: for ED50: Mus musculus
Method: (§4) In an alternative chloroform test on mice the ventricular tachycardia inhibition by the test compounds are observed. Thereby the test solution is given subcutaneous and the animal is observed for CNS-effects for 20 min. The mouse is put into a chamber with chloroform until it stops breathing (approx 30 sec.). The animal is then secured on a cork-board and ECG is monitored. If the ventricular rythm is less than 520 beats per min., the animal was protected against ventricular tachycardia. Groups of 10 animals were tested for each dose-level'and the ED50-values have been calculated therefrom. During the test the side-effect ataxia (incordination of movements) is observed.
(§5) In Table 5, as shown, the new compounds tested exerted antiarrhythmic effects also in this te-st.

[3] = test system: chloroform-induced ventricular arrhythmias; test: Chloroform-induced ventricular arrhythmias (fibrillation) in mice, intraperitoneal dose; settings: for Number of Animals Dead / Number of Animals Protected: dose 100 mg/kg intraperitoneal, 10 treated; for Number of Animals Protected: protected against CHCl3-induced ventricular fibrillation; for Number of Animals Convulsive / Number of Animals LRR: mouse, in vivo, ip, 100 mg/kg
Description: Mice were given an intraperitoneal dose of the test compound. Twenty minutes after dose, they were suffocated in chloroform vapor.- When the animals stopped breathing, the chest was opened to inspect for fibrillation. If the heart was not fibrillating, it was prodded.
Signs of CNS toxicity were noted during the 20-minute interval between dosing and challenge.
"Protected" means number of animals protected against CHC13- induced ventricular fibrillation.

[4] = Conscious dogs with ligation of a coronary artery according to Harris: ectopics and convulsions; type: in vivo; settings: in vivo
Description: as §1, §2, §3

[5] = Alternative chloroform test on mice: ventricular tachycardia inhibition and ataxia; type: in vivo; settings: mouse, in vivo
Method: as §4, §5

[6] = test system: ouabain-induced arrhythmias; test: Ouabain-induced arrhythmias in anesthetized guinea-pigs; type: in vivo; settings: for A-A EFFECT IN NUMBER OF ANIMALS: animals with antiarrhythmic effect / animals tested; for LOWEST FREQUENCY: frequency of ventricular premature beats after test solution; for ASYSTOLE: time of asystole under continued ouabain; for V-FIB: time of ventricular fibrillation under continued ouabain
Method: Guinea-pigs of either.sex (300-400 g) were anesthetized with urethane 1,4 g/kg i.p. and tracheotomized. ECG, lead II was picked up with needle electrodes and was registered continuously throughout the experiment. Two i.v. catheters were inserted: one for the administration of ouabain, the other for the test solution.
The experimental design for the study of antiarrhythmic activities is schematically shown in the head of Table 2. The arrhythmia was induced by automatic infusion of ouabain, 18 µg/kg/60" every two minutes for twelve minutes and thereafter 9 µg/kg/30" every two minutes throughout the whole experiment and the infusion was not stopped until asystole occurred. As soon as the frequency of ventricular premature beats (VPB) had passed 50 per cent, the test solution was given i.v. (0,2 ml/min) during 2 min. (see head of Table 2).

[7] = iv., accumulative end dose giving 50% reduction of ectopics
[8] = iv., accumulative end dose giving 90% reduction of ectopics
[9] = sc., mice, chloroform, groups of 10 animals per dose-level
[10] = iv., conscious dog, mean value for 3-5 dogs, read-out: ED50 Convulsive
[11] = sc., mice, observed for 20 min, read-out: Ataxia ED50

Structure (SMILES): COCCc1ccc(OCC(O)CNCCc2ccccc2)cc1 (stereo not shown) [Ex. 14, 3-(2-phenethylamino)-1-[4-(2-methoxyethyl)phenoxy]-propanol-2]
- ED50 Convulsive ([1]; dog, in vivo, iv): 6 to 8 mg/kg
- Conscious dog Harris ligation Ectopics -50% [1, 7]: 1 mg/kg
- Conscious dog Harris ligation Ectopics -90% [1, 8]: 2 mg/kg
- Ataxia ED50 ([2]; mouse, in vivo, sc, 20 min): 40 mg/kg
- Ventricular tachy-cardia inhibition ED50 [2, 9]: 10 mg/kg

Structure (SMILES): COC(=O)NCCc1ccc(OCC(O)CNC(C)C)cc1 (stereo not shown) [Pamatolol]
- Number of Animals Dead [3]: 0
- Number of Animals Protected [3]: 5
- Number of Animals Convulsive [3]: 0
- Number of Animals LRR [3]: 0

Structure (SMILES): COCc1ccc(OCC(O)CNCCc2ccccc2)cc1 (stereo not shown) [Ex. 7]
- TD50 ([4]; dog, iv): > 8 mg/kg
- ED50 [1, 7]: 4 mg/kg
- ED90 [1, 8]: 8 mg/kg
- TD50 at 20 min ([5]; sc): ~100 mg/kg
- ED50 [2, 9]: ~50 mg/kg

Structure (SMILES): COCCc1ccc(OCC(O)CNCCc2ccccc2)c(Br)c1 (stereo not shown) [EX 3]
- A-A EFFECT IN NUMBER OF ANIMALS ([6]; dose 0.3 mg/kg i.v.): 5/6
- A-A EFFECT IN NUMBER OF ANIMALS ([6]; dose 1.0 mg/kg i.v.): 6/6
- LOWEST FREQUENCY ([6]; dose 0.3 mg/kg i.v.): 26±7%
- LOWEST FREQUENCY ([6]; dose 1.0 mg/kg i.v.): 13±7%
- ASYSTOLE ([6]; dose 0.3 mg/kg i.v.): 34 ± 1 min
- ASYSTOLE ([6]; dose 1.0 mg/kg i.v.): 41 ± 2 min
- V-FIB ([6]; dose 0.3 mg/kg i.v.): 27 ± 1 min
- V-FIB ([6]; dose 1.0 mg/kg i.v.): 35 ± 2 min

Structure (SMILES): COCCc1ccc(OCC(O)CNCc2ccccc2)cc1 (stereo not shown) [Ex. 9, 3-phenylmethylamino-1-[4-(2-methoxyethyl)phenoxy]-propanol-2]
- TD50 ([4]; dog, iv): 8 mg/kg
- ED50 [1, 7]: 2 mg/kg
- ED90 [1, 8]: 4 mg/kg
- TD50 at 20 min ([5]; sc): 60 mg/kg
- ED50 [2, 9]: 35 mg/kg

Structure (SMILES): Cc1cccc(C)c1NC(=O)C(C)N (stereo not shown) [Tocainide, reference compound]
- TD50 ([4]; dog, iv): > 8 mg/kg
- ED50 [1, 7]: 4 mg/kg
- ED90 [1, 8]: 8 mg/kg
- TD50 at 20 min ([5]; sc): 130 mg/kg
- ED50 [2, 9]: 90 mg/kg

Structure (SMILES): COCCc1ccc(OCC(O)CNCCCc2ccccc2)cc1 (stereo not shown) [Ex. 10, 3-(3-phenylpropylamino)-1-[4-(2-methoxyethyl)phenoxy]-propanol-2]
- TD50 ([4]; dog, iv): > 8 mg/kg
- ED50 [1, 7]: 2 mg/kg
- ED90 [1, 8]: 4 mg/kg
- TD50 at 20 min ([5]; sc): > 50 mg/kg
- ED50 [2, 9]: 3 mg/kg

Structure (SMILES): COCCc1ccc(OCC(O)CNCCCCc2ccccc2)cc1 (stereo not shown) [Ex. 11, 3-(4-phenylbutylamino)-1-[4-(2-methoxyethyl)phenoxy]-propanol--2]
- TD50 [4, 10]: 8 mg/kg
- ED50 [1, 7]: 1 mg/kg
- ED90 [1, 8]: 2 mg/kg
- TD50 at 20 min [5, 11]: > 50 mg/kg
- ED50 [2, 9]: 15 mg/kg

Structure (SMILES): COCCc1ccc(OCC(O)CNCCc2ccccc2)cc1 (stereo not shown) [Ex. 1]
- A-A EFFECT IN NUMBER OF ANIMALS ([6]; dose 0.3 mg/kg i.v.): 4/8
- A-A EFFECT IN NUMBER OF ANIMALS ([6]; dose 1.0 mg/kg i.v.): 9/9
- LOWEST FREQUENCY ([6]; dose 0.3 mg/kg i.v.): 38±13%
- LOWEST FREQUENCY ([6]; dose 1.0 mg/kg i.v.): 9±4%
- ASYSTOLE ([6]; dose 0.3 mg/kg i.v.): 28 ± 1 min
- ASYSTOLE ([6]; dose 1.0 mg/kg i.v.): 38 ± 4 min
- V-FIB ([6]; dose 0.3 mg/kg i.v.): 19 ± 1 min
- V-FIB ([6]; dose 1.0 mg/kg i.v.): 31 ± 4 min
- Number of Animals Dead [3]: 0
- Number of Animals Protected [3]: 9
- Number of Animals Convulsive [3]: 1
- Number of Animals LRR [3]: 0

Structure (SMILES): COCCc1ccc(OCC(O)CNC(C)Cc2ccc(O)cc2)c(Br)c1 (stereo not shown) [EX 4, 3-[1-methyl-2-i4-hydroxyphenyl)-ethylaminol-1-[4-(2-methoxyethyl)-2-bromophenoxy]-propanol-2]
- A-A EFFECT IN NUMBER OF ANIMALS ([6]; dose 0.3 mg/kg i.v.): 3/6
- A-A EFFECT IN NUMBER OF ANIMALS ([6]; dose 1.0 mg/kg i.v.): 6/6
- LOWEST FREQUENCY ([6]; dose 0.3 mg/kg i.v.): 31±14%
- LOWEST FREQUENCY ([6]; dose 1.0 mg/kg i.v.): 6±3%
- ASYSTOLE ([6]; dose 0.3 mg/kg i.v.): 27 ± 1 min
- ASYSTOLE ([6]; dose 1.0 mg/kg i.v.): 41 ± 3 min
- V-FIB ([6]; dose 0.3 mg/kg i.v.): 19 ± 1 min
- V-FIB ([6]; dose 1.0 mg/kg i.v.): 31±3 (N=4) min

Structure (SMILES): COCc1ccc(OCC(O)CNCCCCc2ccccc2)cc1 (stereo not shown) [Ex. 8, 3-[4-phenylbutylamino)-1-(4-methoxymethylphenoxy)-propanol-2]
- TD50 ([4]; dog, iv): 8 mg/kg
- ED50 [1, 7]: 4 mg/kg
- ED90 [1, 8]: > 8 mg/kg

Structure (SMILES): COCCc1ccc(OCC(O)CNCCOc2ccccc2)cc1 (stereo not shown) [Ex. 13, 3-[2-phenoxyethylamino]-1-[4-(2-methoxyethyl)phenoxy]-propanol--2]
- TD50 [4, 10]: 8 mg/kg
- ED50 [1, 7]: 4 mg/kg
- ED90 [1, 8]: 4 mg/kg
- TD50 at 20 min [5, 11]: > 12 mg/kg
- ED50 [2, 9]: 3 mg/kg

Structure (SMILES): CCN(CC)CC(=O)Nc1c(C)cccc1C [Lidocaine]
- A-A EFFECT IN NUMBER OF ANIMALS ([6]; dose 4.0 mg/kg i.v.): 5/5
- A-A EFFECT IN NUMBER OF ANIMALS ([6]; dose 12.0 mg/kg i.v.): 5/6
- LOWEST FREQUENCY ([6]; dose 4.0 mg/kg i.v.): 10±1%
- LOWEST FREQUENCY ([6]; dose 12.0 mg/kg i.v.): 5±3%
- ASYSTOLE ([6]; dose 4.0 mg/kg i.v.): 21 ± 1 min
- ASYSTOLE ([6]; dose 12.0 mg/kg i.v.): 30 ± 3 min
- V-FIB ([6]; dose 4.0 mg/kg i.v.): 15 ± 2 min
- V-FIB ([6]; dose 12.0 mg/kg i.v.): 22 ± 3 min
- Number of Animals Dead [3]: 0
- Number of Animals Protected [3]: 5
- Number of Animals Convulsive [3]: 10
- Number of Animals LRR [3]: 10
